Assay results from PMC5315062 (Oncology and Therapy, 2016).
Entries after “also recorded” stand apart in the source; their conditions may differ.

What was measured:
[1] = Single-dose pharmacokinetics of ponatinib in rats; format: in vivo, Sprague–Dawley rats; details: rat; for half-life: T 1/2, rat; for Tmax: T max
[2] = Tissue distribution in rats after i.g. 15.0 mg/kg; format: in vivo, Sprague–Dawley rats; details: for exposure in lung and thyroid: rat, 3, 9, 24 h
[3] = Stability of ponatinib in rat bio-samples under different storage conditions; format: in vitro ADME; details: rat plasma, urine, feces; all RE (%) and RSD (%) below 15%
[4] = Toxicity and mortality after repeated intragastric administration in rats; format: in vivo
BCR–ABL1 = details: cited from earlier work
[5] = in vitro; large decrease in solubility with increasing pH; cited from earlier work
[6] = healthy subjects, meal within 30 min prior to single oral administration; cited from earlier work
[7] = Single- versus multi-dose; details: rat
[8] = both, Sprague-Dawley, plasma, iv, 3 mg/kg
[9] = both, Sprague-Dawley, plasma, po, 7.5 mg/kg
[10] = both, Sprague-Dawley, plasma, po, 7.5 mg/kg, i.g. 7.5 mg/kg
[11] = both, Sprague-Dawley, plasma, po, 15 mg/kg
[12] = both, Sprague-Dawley, plasma, po, 15 mg/kg, i.g. 15.0 mg/kg
[13] = both, Sprague-Dawley, plasma, po, 30 mg/kg
[14] = both, Sprague-Dawley, plasma, po, 30 mg/kg, i.g. 30.0 mg/kg
[15] = both, Sprague-Dawley, in vivo, po, 3.75 mg/kg
[16] = i.g. 3.75 mg/kg once a day for 7 days (multi-dose)

Q: What does the source list for `Cc1ccc(C(=O)Nc2ccc(CN3CCN(C)CC3)c(C(F)(F)F)c2)cc1C#Cc1cnc2cccnn12` [ponatinib, Ponatinib]?
A: AUC(0-inf) [1, 8]: 2180 ± 462 ng·h/mL; MRT [1, 8]: 9.77 ± 0.66 h; clearance [1, 8]: 23.8 mL/min/kg; concentration at 5 min [1, 8]: 281 ± 129 ng/mL; half-life ([1]; both, Sprague-Dawley, plasma, iv, 3 mg/kg, i.v. 3.0 mg/kg): 370 ± 57 min; AUC(0-inf) [1, 9]: 1910 ± 353 ng·h/mL; Cmax [1, 9]: 104 ± 23.4 ng/mL; MRT [1, 9]: 16.4 ± 1.25 h; half-life [1, 10]: 653 ± 63.6 min; Tmax [1, 10]: 8.4 ± 2.19 h; AUC(0-inf) [1, 11]: 5030 ± 1010 ng·h/mL; Cmax [1, 11]: 285 ± 69 ng/mL; MRT [1, 11]: 16.7 ± 2.74 h; half-life [1, 12]: 582 ± 85.8 min; Tmax [1, 12]: 8.33 ± 0.82 h; AUC(0-inf) [1, 13]: 11600 ± 2890 ng·h/mL; Cmax [1, 13]: 638 ± 107 ng/mL; MRT [1, 13]: 16.5 ± 2.36 h; half-life [1, 14]: 580 ± 48.6 min; Tmax [1, 14]: 7.67 ± 0.82 h; CL ([1]; i.g. 7.5 mg/kg): 4.02 ± 0.68 L/kg/h; V ([1]; i.g. 7.5 mg/kg): 63.55 ± 14.02 L/kg; CL ([1]; i.g. 15.0 mg/kg): 3.07 ± 0.56 L/kg/h; V ([1]; i.g. 15.0 mg/kg): 42.85 ± 5.01 L/kg; CL ([1]; i.g. 30.0 mg/kg): 2.72 ± 0.76 L/kg/h; V ([1]; i.g. 30.0 mg/kg): 37.78 ± 9.26 L/kg; exposure in plasma in relation to dose ([1]; i.g. 7.5, 15.0, 30.0 mg/kg): dose-dependent exposure; V ([1]; i.v. 3.0 mg/kg): 12.93 ± 4.37 L/kg; distribution into tissues of the body ([2]; rat): distributed widely; also recorded: widely distributed; level in stomach, intestine and liver ([2]; rat): fairly low; exposure in lung and thyroid [2]: highly exposed; also recorded: highest levels; exposure in lung and thyroid ([2]; listed as Ponatinib): highest exposure; stability under various storage conditions [3]: stable; toxicity ([4]; 3.75 mg/kg consecutive administration for 7 days): Toxicity was displayed to some extent; mortality ([4]; repeated intragastric administration over 6 mg/kg): increased; also recorded: high mortality; concentration at which BCR–ABL1 is inhibited (BCR–ABL1): above 40 nmol/L; aqueous solubility [5]: pH-dependent; effect of a high- or low-fat meal on single-dose pharmacokinetics [6]: no effect; Cmax [7, 15]: 129 ± 37.6 ng/mL; Cmax at 7 days [7, 15]: 189 ± 55.7 ng/mL; Tmax [7, 15]: 10 ± 2.19 h; Tmax at 7 days [7, 15]: 6.67 ± 3.01 h; half-life [7, 15]: 677 ± 87.6 min; half-life at 7 days [7, 15]: 655 ± 93.6 min; CL [7, 16]: 0.70 ± 0.11 L/kg/h; V [7, 16]: 10.85 ± 1.49 L/kg; CL ([7]; i.g. 3.75 mg/kg, single dose): 1.79 ± 0.61 L/kg/h; V ([7]; i.g. 3.75 mg/kg, single dose): 28.91 ± 9.47 L/kg
